In US11976063B2, “Pharmaceutical composition comprising berberine and ursodeoxycholic acid for the treatment of various diseases or disorders” (priority 2014, dated 2024):
Where a name gives a salt, the structure may show the parent alone.

Columns and labels:
[1] = system: high fat diet (HFD) induced non-alcoholic fatty liver mice; assay: High fat diet induced non-alcoholic fatty liver mice model (Example 5); type: in vivo, NIH male mice
Excerpt: This example describes an in vivo efficacy study of BUDCA disclosed in the present invention using a high fat diet (HFD) induced non-alcoholic fatty liver mice model.
91 NIH male mice of 4 weeks old were obtained from Vital River Laboratories (Beijing, China). After acclimatization for one week, 13 mice were selected as control group (Group 1, G1) with normal chow diet fed, and the other 78 mice were fed with HFD (in which 40% of calories is from fat) for 4 weeks to establish an animal model resembling the pathophysiology of non-alcoholic fatty liver in human.
Following 4 weeks of high fat dietary intervention, the 78 mice were divided into 6 groups according to body weight (n=13 per group): • Group 2, G2: Vehicle control (0.5% CMC-Na solution) • Group 3, G3: Low-dose group of BUDCA (30 mg/kg) • Group 4, G4: Middle-dose group of BUDCA (100 mg/kg) • Group 5, G5: High-dose group of BUDCA (300 mg/kg) • Group 6, G6: BBR control group (Berberine HCl, 150 mg/Kg) • Group 7, G7: UDCA control group (Ursodeoxycholic acid, 150 mg/Kg)
The mice from G2 to G7 were administered with the corresponding testing articles indicated above once daily by intragastric gavage. HFD continued throughout the duration of the treatment of 6 weeks. The normal mice (G1) were treated with vehicle (0.5% CMC-Na solution) via intragastric gavage. At the end of experiment, the following biochemical parameters were measured and tests were carried out: • Body weight, the weight ratio of liver • Total cholesterol (TC) and triglyceride (TG) levels, high density lipoprotein cholesterol (HDL-C) and low density lipoprotein cholesterol (LDL-C) levels • Alanine aminotransferase (ALT) and aspartate aminotransferase (AST) levels • Superoxide dismutase (SOD) activity and malondialdehyde (MDA) level • Oral glucose tolerance test (OGTT) • Histopathological examination of liver ([…] staining)
After 6 weeks treatment, blood was collected via retro-orbital bleeding of each 12-hour fasted animal. Liver was harvested by surgery for histopathology analysis after weight measurement. Then the serum was isolated for the determination of TC, TG, HDL-C, LDL-C, ALT, AST, SOD and MDA.
One week before sacrifice (Week 5 of treatment), an oral glucose tolerance test (OGTT) was performed in 12-hour fasted animals. For the OGTT, all mice received an oral glucose challenge at 2.0 g/Kg and the blood glucose concentrations were determined by glucometer (ACCU-CHEK Active, Roche) at 0, 30, 60, 90 and 120 min.
The liver tissue was histopathologically evaluated by […] staining after frozen section.

[2] = system: high fat diet (HFD) and streptozotocin (STZ) induced diabetic mice; type: in vivo
Description: This example describes an in vivo efficacy study of the combinations disclosed in the present invention using a high fat diet (HFD) and streptozotocin (STZ) induced diabetic mice model.
Sixty NIH male mice of 4 weeks old were acquired from Guangzhou Institute of Laboratory Animal. After acclimatization for one week, five mice were selected as normal control group (Group 1), the rest fifty-five mice were administered single dose of STZ at the dose of 40 mg/kg, and fed with HFD (in which 40% of calories is from fat) for 7 days to establish a diabetic animal model resembling the pathophysiology of type 2 diabetes in human. Mice in the normal control group were not administered STZ, and fed with normal chow diet.
The mice from Group 2 to 5 were treated with the corresponding testing articles indicated above once daily by intragastric gavage. HFD continued throughout the duration of the treatment of 28 days. The normal mice (Group 1) were treated with normal saline by intragastric gavage. Fasting blood glucose, total cholesterol (TC) and triglyceride (TG) levels, food intake, water intake and body weight were measured throughout the study.
(§1) On day 28 of the treatment, an oral glucose tolerance test (OGTT) was performed in 12-hour fasted animals. For the OGTT, after the measurement of the basal glucose concentration (T=−30 min), mice received an oral glucose challenge at 2.5 g/kg and glucose values were determined by glucometer (ACCU-CHEK Active, Roche) at 0, 30, 60 and 120 min.
After OGTT, blood samples were collected for the measurement of blood glucose, TC and TG. The mice were sacrificed, and the pancreas, liver, kidney and fat were harvested for histopathology analysis.

[3] = system: high fat diet (HFD) induced obesity mice; assay: High fat diet induced obesity mice model (Example 2); type: in vivo, NIH male mice; conditions: used individually at 50 mg/Kg, once daily i.g., interim results at 15 days
Excerpt: This example describes an in vivo efficacy study of the combinations disclosed in the present invention using a high fat diet (HFD) induced obesity mice model.
Fifty NIH male mice of 4 weeks old were acquired (Guangzhou Institute of Laboratory Animal). After acclimatization for one week, eight mice were selected as normal control; the rest forty-two mice were fed with HFD (in which 40% of calories is from fat) for 14 days to establish a HFD induced obesity mice model resembling the pathophysiology of metabolic syndrome in human. Normal control mice were fed with normal chow diet. […]
The mice from Group 1 to 4 were treated with the corresponding testing articles indicated above once daily by intragastric gavage. […] Blood glucose (fasting and non-fasting), total cholesterol (TC) and triglyceride (TG) levels, food intake, water intake and body weight were measured throughout the study.
as §1, with “g/Kg” for “g/kg”, “min. […]” for “min.”

[4] = 150 mg/Kg (G6 Berberine HCl; G7 UDCA), i.g. once daily, 6 weeks, HFD, mean ± S.E.M
[5] = serum, 150 mg/Kg (G6 Berberine HCl; G7 UDCA), i.g. once daily, 6 weeks, HFD, mean ± S.E.M
[6] = Day 0 (before treatment), same doses
[7] = Day 3, same doses, once daily i.g.
[8] = Day 27, same doses, once daily i.g.
[9] = Day 28, same doses, once daily i.g.

| SMILES | Body weight [1, 4] | Weight ratio of liver [1, 4] | ALT [1, 5] | AST [1, 5] | HDL-C [1, 5] | LDL-C [1, 5] | SOD [1, 5] | TC [1, 5] | TG [1, 5] | Pharmacological effects comparing to the vehicle control group [3] | further results |
| --- | --- | --- | --- | --- | --- | --- | --- | --- | --- | --- | --- |
| COc1ccc2cc3[n+](cc2c1OC)CCc1cc2c(cc1-3)OCO2 [Berberine HCl, reference compound] | 42.4 ± 1.37 g | 4.26 ± 0.12% | 37.1 ± 4.08 U/L | 198.7 ± 18.93 U/L | 2.47 ± 0.20 mmol/L | 1.42 ± 0.21 mmol/L | 77.03 ± 8.98 U/mL | 5.97 ± 0.47 mmol/L | 1.00 ± 0.08 mmol/L |  | MDA [1, 5]: 9.3 ± 2.14 µM |
| CN(C)C(=N)NC(=N)N [Metformin, N,N-Dimethylimidodicarbonimidic diamide] |  |  |  |  |  |  |  |  |  |  | Effect on symptoms of diabetes (overall efficacy) ([2]; 28 days treatment, HFD/STZ mice): did not demonstrate a clear efficacy; Fasting blood glucose, Day 0 ([2]; Day 0 (before treatment), metformin 300 mg/kg, berberine 150 + UA 150 mg/kg, berberine 150 + EPA 75 + DHA 75 mg/kg): 24.08 ± 5.44 mmol/L; Weight, Day 0 ([2]; Day 0 (before treatment), metformin 300 mg/kg, berberine 150 + UA 150 mg/kg, berberine 150 + EPA 75 + DHA 75 mg/kg, once daily i.g.): 26.30 ± 2.54 g; Total Cholesterol, Day 0 [2, 6]: 297.96 ± 67.09 mg/dL; Triglyceride, Day 0 [2, 6]: 2.40 ± 1.03 mmol/L; Food Intake, Day 3 [2, 7]: 8.66 g; Water intake, Day 3 [2, 7]: 19.40 mL; Water intake, Day 6 ([2]; Day 6, same doses, once daily i.g.): 23.60 mL; Weight, Day 27 ([2]; Day 27, metformin 300 mg/kg, berberine 150 + UA 150 mg/kg, berberine 150 + EPA 75 + DHA 75 mg/kg, once daily i.g.): 36.99 ± 3.90 g; Food Intake, Day 27 [2, 8]: 9.37 g; Water intake, Day 27 [2, 8]: 34.40 mL; Fasting blood glucose, Day 28 [2, 9]: 21.66 ± 4.71 mmol/L; Total Cholesterol, Day 28 [2, 9]: 436.99 ± 159.73 mg/dL; Triglyceride, Day 28 [2, 9]: 6.06 ± 6.71 mmol/L |
| C[C@H](CCC(=O)O)[C@H]1CC[C@H]2[C@@H]3[C@@H](O)C[C@@H]4C[C@H](O)CC[C@]4(C)[C@H]3CC[C@]12C [UDCA, 3α,7β-dihydroxy-5β-cholan-24-oic acid, reference compound] | 42.0 ± 1.16 g | 4.77 ± 0.26% | 30.6 ± 5.73 U/L | 162.86 ± 29.42 U/L | 2.13 ± 0.33 mmol/L | 1.37 ± 0.26 mmol/L | 44.75 ± 11.99 U/mL | 4.77 ± 0.70 mmol/L | 1.20 ± 0.22 mmol/L |  |  |
| COc1ccc2cc3[n+](cc2c1OC)CCc1cc2c(cc1-3)OCO2 [berberine, 5,6-dihydro-9,10-dimethoxybenzo[g]-1,3-benzodioxolo[5,6-a]quinolizinium] |  |  |  |  |  |  |  |  |  | neither berberine (Group 2), nor hydroxycitric acid (Group 3) demonstrated any pharmacological effects | Animals showing gastrointestinal side effects at the time of sacrifice ([1]; berberine treatment group (150 mg/Kg), 6 weeks i.g.): 50 % of animals |
| O=C(O)CC(O)(C(=O)O)C(O)C(=O)O (stereo not drawn) [hydroxycitric acid, 1,2-dihydroxypropane-1,2,3-tricarboxylic acid] |  |  |  |  |  |  |  |  |  | neither berberine (Group 2), nor hydroxycitric acid (Group 3) demonstrated any pharmacological effects |  |
